Data as given in article PMC10064817 (Pharmaceutical Biology, 2023).
Read-outs that look alike come from different tables or passages of the source.

Columns and labels:
[1] = rat, in vivo, po; cited from earlier work
[2] = type: physicochemical; conditions: 12 h
Method: The LCMS system was operated using a LCMS-8060 (Shimadzu, Kyoto, Japan) equipped with a C18 reversed phase column, Synergi 4 µm Fusion-RP 80 Å 50 × 2 mm (Phenomenex, Torrance, CA). The column oven was maintained at 40 °C and operated using a mobile phase consisting of 0.2% formic acid in water (solvent A) and 100% methanol (solvent B), with a gradient system (0–0.5 min 10% B, 0.5–1.5 min increase to 90% B, 1.5–2.5 min 90% B, 2.5–3.5 min decrease to 10% B, 3.5–4.5 min 10% B), at a flow rate of 0.5 mL/min, with a 10 μL injection volume. The mass spectrometer was a triple quadrupole with negative mode electrospray ionization (ESI). […] All the operations, acquisition and analysis of data were controlled by LabSolution software version 5.86 (Shimadzu, Japan). The LCMS method was validated for accuracy, precision, recovery and stability according to the guidance on bioanalytical method validation recommended by the FDA (USFDA [2018]).

[3] = predicted; ref PubChem [2004]; cited from earlier work
in vivo = conditions: male, beagle, dog
[4] = tested on: SARS-CoV-2-infected Vero E6 cells; set-up: method as in Kanjanasirirat et al. [2020]; conditions: ref Kanjanasirirat et al. [2020]; cited from earlier work
[5] = dog, in vivo, iv, 1 mg/kg
[6] = tested on: SARS-CoV-2-infected Calu-3 cells; set-up: method as in Sa-ngiamsuntorn et al. [2021]; conditions: ref Sa-ngiamsuntorn et al. [2021]; cited from earlier work
COVID-19 = tested on: COVID-19; set-up: method as in Jayk Bernal et al. [2021]; conditions: ref Jayk Bernal et al. [2021]; cited from earlier work
SARS-CoV-2 infection = tested on: SARS-CoV-2 infection; set-up: method as in Ansems et al. [2021]; conditions: hospitalized patients with SARS-CoV-2 infection; ref Ansems et al. [2021]; cited from earlier work

In the case of `COc1cc(O)c(C(=O)[C@@H]2[C@H](CC=C(C)C)C(C)=CC[C@H]2c2ccccc2)c(O)c1` [Panduratin A, panduratin A], the Tissue distribution [1] is listed as “distribution of panduratin A to various tissues, including skin, lung, heart, gum, liver, spleen, kidney and brain”, the “Stability, Accuracy (%RE)” value ([2]; 10 µg/L) is listed as 9.75 %RE and the “Stability, mean concentration found” value ([2]; 10 µg/L) is listed as 10.98 µg/L. The “Stability, Accuracy (%RE)” value ([2]; 150 µg/L) was 4.48 %RE, the “Stability, mean concentration found” value ([2]; 150 µg/L) was 156.72 µg/L and the “Stability, Accuracy (%RE)” value ([2]; 600 µg/L) was 4.76 %RE. For the same compound, the “Stability, mean concentration found” value ([2]; 600 µg/L) was 628.57 µg/L, the Hydrogen bond acceptors [3] was “four” and the Hydrogen bond donors [3] was “two”. The half-life (in vivo) was 10 to 15 h, the AUC(0-inf) (in vivo; iv, 1 mg/kg) was 209 µg·h/mL and the AUC(0-t) (in vivo; iv, 1 mg/kg) was 181 µg·h/mL. It also gave an MRT (in vivo; iv, 1 mg/kg) of 23.9 ± 3.27 h, a Vd (in vivo; iv, 1 mg/kg) of 0.1 ± 0.01 L/kg and a clearance (in vivo; iv, 1 mg/kg) of 0.167 mL/min/kg. The concentration at 72 h (in vivo; iv, 1 mg/kg) was 0.1 to 0.2 µg/mL, the half-life (in vivo; iv, 1 mg/kg) was 15.2 h and the Cmax (in vivo; iv, 1 mg/kg, Cmax) was about 100 µg/mL. For the same compound, the IC50 [4] was 810 nM, the ALT [5] was 44 ± 7 U/L and the AST [5] was 24 ± 6 U/L. It also gave an Alkaline phosphatase [5] of 35 ± 4 U/L, a Blood urea nitrogen [5] of 11.9 ± 1.6 mg/dL and a Creatinine [5] of 0.6 ± 0.1 mg/dL. The Haemoglobin [5] was 14.2 ± 1.3 g/dL, the Physical appearance [5] was “Normal” and the Platelet [5] was 241 ± 44 x 10^3/µL. The Red blood cell [5] was 6.03 ± 0.66 x 10^6/µL and the White blood cell [5] was 7.83 ± 1.09 x 10^3/µL.

For `C=C1CC[C@@H]2[C@](C)(CO)[C@H](O)CC[C@@]2(C)[C@@H]1C/C=C1/C(=O)OC[C@H]1O` [andrographolide], the IC50 [6] is listed as 34 nM.

For `CC(C)C(=O)OC[C@H]1O[C@@H](n2ccc(NO)nc2=O)[C@H](O)[C@@H]1O` [molnupiravir], the “Reduced rate of hospitalization or death compared to placebo” value (COVID-19) is listed as 30%.

For `CCC(CC)COC(=O)[C@H](C)N[P@](=O)(OC[C@H]1O[C@@](C#N)(c2ccc3c(N)ncnn23)[C@H](O)[C@@H]1O)Oc1ccccc1` [remdesivir, reference compound], the “Effect on all-cause mortality at up to day 28” value (SARS-CoV-2 infection) is given as “little or no effect” and the IC50 [4] is given as 2710 nM.
